Measurements published in publication PMC4104029, “Mechanism of Action of Compound-13: An α1-Selective Small Molecule Activator of AMPK” (Chemistry & Biology, 2014).

Test system: rat liver AMPK (mixture of α1β1γ1 and α2β1γ1)
Assay: Rat liver AMPK activation assay
Assay type: biochemical
Settings: for EC50: 0.2 mM ATP and 0.2 mM AMARA
Protocol: AMPK phosphotransferase activity was assayed in reactions (50 μl) containing 50 mM HEPES, pH 7.4, 10 mM MgCl2, 0.1 mM EGTA, 1 mM DTT, 0.01% BRIJ-35, 100 μM [γ-^32P]ATP (∼250 CPM⋅pmol^−1) and 200 μM AMARA (AMARAASAAALARRR). Reactions were started by the addition of AMPK (5 mU), incubated for 20 min at 30°C and quenched by spotting onto P81 and immersion in 75 mM H3PO4. Washed filters were dried and [^32P] incorporation determined by Cherenkov counting. AMPK activity in cell extracts was determined by immunoprecipitation with AMPKα1 or AMPKα2 antibodies from 50 μg material, as previously described ([Hunter et al., 2011]). Results are expressed as picomoles Pi incorporated per minute-milligram or the fold increase in activity compared to controls in the absence of the compound and were fitted to the following equation: v=vo+{(vmax−vo)[A]^h/Kah+[A]^h}, where v is the velocity, vo is the velocity in the absence of compound, [A] is the concentration of activator, Ka is the concentration of activator that increases velocity to 50% maximal stimulated activity, and h is the Hill coefficient. […]
Figure S3, related to Figure 2. C2 is a partial agonist of rat liver AMPK and is antagonised by ADP but has no effect on isolated AMPKα subunits. (A) Full-length human AMPKα1 and α2 subunits were prepared in E.coli and activated with CAMKK as described in Methods. Isolated AMPKα subunits were assayed under standard conditions in the presence of C2 (0 - 1000 nM). Results are expressed normalised to maximal activity in the absence of ligand and represent the average ± SD of three independent experiments on a single preparation of kinase. (B) Rat liver purified AMPK (containing α1 and α2 subunits in complex with β1γ1) was assayed for activation by AMP and C2 in the presence of 0.2 mM ATP and 0.2 mM AMARA as described in Methods. Results are expressed as mean Pi incorporated in nmol.min-1.mg-1 ± SD. (C) Rat liver AMPK was assayed under standard conditions in the presence of saturating AMP (30 µM) and increasing concentrations of C2 (0 - 10 µM). (D) Recombinant AMPK α1β1γ1 was assayed under standard conditions in the presence of 1 μM C2 and increasing concentrations of ADP (0 - 200 μM). Results are expressed as fold increase in activity relative to controls in the absence of compound ± SD.
(E) C2 and AMP displace a GST-AMPKγ2 subunit fusion from ATP-γ-Sepharose. A purified C-terminal fragment of AMPKγ2 bearing CBS domains 1-4 was absorbed onto ATP- […]
Sepharose. […]
PAGE and staining with colloidal Coomassie. (F) Recombinant PP2Cα was assayed by monitoring the release of phosphate from 100 μM EFLR(pT)SCGS in the presence of increasing concentrations of C2 (0 – 100 μM). The plant alkaloid, sanguinarine was included as a positive control for inhibition of phosphatase activity. […]

SMILES	EC50	extent of activation compared with AMP	reduction of activity stimulated by 30 μM AMP (C2 0–10 µM)
Nc1ncnc2c1ncn2[C@@H]1O[C@H](COP(=O)(O)O)[C@@H](O)[C@H]1O [AMP, reference compound]	3600 ± 200 nM	–	–
O=P(O)(O)c1ccc(-c2cc(O)on2)o1 [Compound C2, 5-(5-hydroxyl-isoxazol-3-yl)-furan-2-phosphonic acid]	65 ± 4 nM	only half the extent	≈ 50%
